Data from patent US20240182413A1, “INSECTICIDAL COMPOUNDS” (Pluton Biosciences, Inc., priority 2022, published 2024).
“And” between values parts separate entries of the source, which are not always exact repeats. Identical values can stand only once. Like-named read-outs stand apart in the source and are kept apart here.

Experiments:
Cry1Fa resistant FAW = test: Killing of Cry1Fa resistant fall armyworm; assay type: in vivo, Spodoptera frugiperda; details: 1000 ppm BIM compound, 20 μl on diet surface; neonates; 5-7 days
Protocol: (§1) During the development of embodiments of the technology provided herein, experiments were conducted to test the killing potency of arundine-derived BIM compounds against strains of fall armyworm (FAW) that are resistant to Bacillus thuringiensis (Bt) insecticidal proteins (e.g., Cry1Fa and Vip3A). Susceptible FAW (Spodoptera frugiperda) was obtained from Benzon Research Inc, Lancaster, PA. Cry1Fa resistant FAW originating from Puerto Rico was reared in a facility by Genective (Weldon, IL). Vip3A resistant FAW originating from southern US was reared in a facility by Genective (Weldon, IL).
(§2) FAW eggs were incubated at approximately 26° C. at 50% relative humidity until eclosion (approximately 3 days) and the hatch was timed to within 12 hours of infesting the diet plates. BIM compounds were obtained from frozen stocks, thawed, suspended in 5% DMSO along with NYSM buffer to provide a solution of 2000 ppm BIM compound in a total volume of 1.0 ml, and stored at −20° C. For testing, a single tube of each BIM compound sample was thawed at 4° C. NYSM buffer was warmed to room temperature. A volume of 750 μl. NYSM buffer was added to 750 μl from each 1.0-ml volume to prepare samples of 1.5 ml BIM compound at 1000 ppm for testing. A total of three BIM preparations per BIM molecule were prepared and tested for killing potency. Compounds tested were BIM-1, 11, 25, 26, 28, 29, 30, 32, 34. A solution of 5% DMSO in NYSM buffer was used as a negative control.
A standard commercially available semi-solid lepidopteran diet was prepared following manufacturer's instructions (Frontier, multi-species diet). […] LB+Kanamycin (antibiotic) growth media is the negative control for bacterial cultures. Cry1Fa is a positive control prepared as E. coli cells expressing the full-length Cry1Fa protein resuspended in PBS buffer at half the volume of the original growth culture resulting in 2× concentration of cells. Vip3A is a positive control prepared as E. coli whole cell culture expressing Vip3A.
For each of 3 replicates, 200 μl of diet was prepared in wells of a 96-well plate and the diet plates were warmed to room temperature prior to dispensing samples. After 750 μl NYSM buffer was added to 750 μl from each 1.0-ml volume to prepare samples of 1.5 ml BIM compound at 1000 ppm for testing, BIM solutions were vortexed and 20 μl were dispensed onto the diet surface in each of 16 wells using a repeating pipettor. These steps were repeated for each sample and control for each insect population being tested. BIM compound and control solutions were allowed to absorb into the diet in a biosafety hood until the diet surface was visibly dry. Once dry, wells were sealed with a clear membrane. Two pin holes were poked through the membrane in each well to maintain appropriate humidity level and aeration. Each well was infested with a single neonate larva, and the wells were resealed with perforated membrane to prevent escape. The infested plates were incubated in environmental chambers at 26° C. and 50% relative humidity for 5-7 days. All bioassays were assessed visually to record larval mortality and growth inhibition.

Vip3A resistant FAW = test: Killing of Vip3A resistant fall armyworm; assay type: in vivo, Spodoptera frugiperda; details: 1000 ppm BIM compound, 20 μl on diet surface, 5-7 days
Protocol: as §1, §2
A standard commercially available semi-solid lepidopteran diet was prepared following manufacturer's instructions (Frontier, multi-species diet). […] LB+Kanamycin (antibiotic) growth media is the negative control for bacterial cultures. […]
(§3) For each of 3 replicates, 200 μl of diet was prepared in wells of a 96-well plate and the diet plates were warmed to room temperature prior to dispensing samples. […] All bioassays were assessed visually to record larval mortality and growth inhibition.

[1] = tested on: Spodoptera frugiperda (fall armyworm) first instar larvae; test: Spodoptera frugiperda killing assay (diet-surface overlay); assay type: in vivo; details: for LC50: Spodoptera frugiperda
Protocol: Insect killing assays. Each compound was dissolved in dimethyl sulfoxide (DMSO). Killing dose curves were constructed for each compound by producing a two-fold dilution series of the compound (e.g., comprising approximately 16 serial dilutions of a stock for 3,3′-diindolylmethane and 3-((1H-Indol-2-yl)methyl)-1H-indole and comprising approximately 12 serial dilutions of a stock for 3,3′-diindolyl and 3,3′-(pyridin-4-ylmethylene)bis(1H-indole)). Dilutions were made in sterile NYSM broth as described above. The two-fold dilution series were tested in a killing bioassay as described below. Data were collected to construct a dose curve and determine the half-maximal lethal concentration (LC50) value.
Bioassays were performed using first instar larvae of the Lepidopteran species Spodoptera frugiperda (fall armyworm), with an N=16 for each concentration of compound tested. S. frugiperda larvae were purchased from Benzon Research, Inc. (Carlisle, PA). A diet-surface overlay format was used in which 1 milliliter of standard lepidopteran diet was placed in each well. One hundred microliters of sample were pipetted into each well and allowed to dry. A DMSO control was included with each set of samples.
During the development of embodiments of the technology described herein, experiments were conducted to test the killing of arundine against a panel of 11 insect species. […] Briefly, arundine was dissolved in dimethyl sulfoxide (DMSO). Killing dose curves were constructed by producing a two-fold dilution series of arundine. Dilutions were made in sterile NYSM as described. The two-fold dilution series were tested in a killing bioassay performed using first instar larvae of the species listed in Table 4, with an N=16 for each concentration of compound tested. A diet-surface overlay format was used in which 1 milliliter of standard lepidopteran diet was placed in each well. One hundred microliters of sample were pipetted into each well and allowed to dry. A DMSO control was included with each set of samples. […] Data were collected to construct a dose curve and determine the half-maximal lethal concentration (LC50) value.

[2] = tested on: fall armyworm (FAW), susceptible and the two resistant varieties (Cry1 and Vip3A); test: Killing of susceptible and Bt-resistant fall armyworm (strain not specified); assay type: in vivo, Spodoptera frugiperda; details: 1000 ppm BIM compound, 20 μl on diet surface, neonate larvae, at 7 days
Protocol: as §1
FAW eggs were incubated at approximately 26° C. at 50% relative humidity until eclosion (approximately 3 days) and the hatch was timed to within 12 hours of infesting the diet plates. BIM compounds were obtained from frozen stocks, thawed, suspended in 5% DMSO along with NYSM buffer to provide a solution of 2000 ppm BIM compound in a total volume of 1.0 ml, and stored at −20° C. For testing, a single tube of each BIM compound sample was thawed at 4° C. NYSM buffer was warmed to room temperature. A volume of 750 μl. […]
as §3

[3] = tested on: A. gemmatalis (Velvetbean caterpillar) first instar larvae; test: Insect panel killing assay (diet-surface overlay); assay type: in vivo
Protocol: (§4) During the development of embodiments of the technology described herein, experiments were conducted to test the killing of arundine against a panel of 11 insect species. Killing assays were performed as described in Example 2 for Spodoptera frugiperda. Briefly, arundine was dissolved in dimethyl sulfoxide (DMSO). Killing dose curves were constructed by producing a two-fold dilution series of arundine. Dilutions were made in sterile NYSM as described. The two-fold dilution series were tested in a killing bioassay performed using first instar larvae of the species listed in Table 4, with an N=16 for each concentration of compound tested. A diet-surface overlay format was used in which 1 milliliter of standard lepidopteran diet was placed in each well. One hundred microliters of sample were pipetted into each well and allowed to dry. A DMSO control was included with each set of samples. Spinosad (MilliporeSigma, catalog #33706) was used as a positive control for insecticidal activity, and water was used as an additional negative control. Data were collected to construct a dose curve and determine the half-maximal lethal concentration (LC50) value. In Table 4, % of insects killed is provided in the table cells for the concentrations listed at the top (2500, 625, 156, and 0 μg/mL arundine).

[4] = tested on: C. includens (Soybean looper) first instar larvae; test: Insect panel killing assay (diet-surface overlay); assay type: in vivo
Protocol: as §4

[5] = tested on: C. pomonella (Codling moth) first instar larvae; test: Insect panel killing assay (diet-surface overlay); assay type: in vivo
Protocol: as §4

[6] = tested on: D. grandiosella (Southwestern corn borer) first instar larvae; test: Insect panel killing assay (diet-surface overlay); assay type: in vivo
Protocol: as §4

[7] = tested on: D. saccharalis (Sugarcane borer) first instar larvae; test: Insect panel killing assay (diet-surface overlay); assay type: in vivo
Protocol: as §4

[8] = tested on: H. virescens (Tobacco budworm) first instar larvae; test: Insect panel killing assay (diet-surface overlay); assay type: in vivo
Protocol: as §4

[9] = tested on: H. zea (Corn earworm) first instar larvae; test: Insect panel killing assay (diet-surface overlay); assay type: in vivo
Protocol: as §4

[10] = tested on: S. eridania (Southern armyworm) first instar larvae; test: Insect panel killing assay (diet-surface overlay); assay type: in vivo
Protocol: as §4

[11] = tested on: S. exigua (Beet armyworm) first instar larvae; test: Insect panel killing assay (diet-surface overlay); assay type: in vivo
Protocol: as §4

[12] = tested on: T. ni (Cabbage looper) first instar larvae; test: Insect panel killing assay (diet-surface overlay); assay type: in vivo
Protocol: as §4

[13] = tested on: fall armyworm (Spodoptera frugiperda); details: after seven days of exposure; cited from earlier work
Aedes aegypti larvae = test: Aedes aegypti killing assay (larval bioassay, two-fold dilution series); assay type: in vivo; details: Aedes aegypti, 72 h
Protocol: Insect killing assays. Each compound was dissolved in dimethyl sulfoxide (DMSO). Killing dose curves were constructed for each compound by producing a two-fold dilution series for each compound (e.g., comprising approximately 20 serial dilutions of a stock). Dilutions were made in sterile nutrient yeast extract salt medium (NYSM) broth. The NYSM contained 8 g/L nutrient broth powder, 0.5 g/L yeast extract, 1 mM MgCl2, 700 μM CaCl2, and 50 μM MnCl2 in water. The two-fold dilution series were tested in a killing bioassay as described below. Data were collected to construct a dose curve and determine the half-maximal lethal concentration (LC50) value.
Bioassays were performed using second or third instar Aedes aegypti larvae, with biological replication. Ae. aegpyti larvae were purchased from Benzon Research, Inc. (Carlisle, PA). Larvae were washed with sterile water before transfer to 24-well assay plates containing 1 mL of sterile water in each well. Each well contained 5 larvae. The final DMSO concentration in each assay well was 1%. Larval mortality was scored for each well at 24-hour timepoints after application. […] In Table 1, mean mortalities and standard deviations were calculated from at least three independent biological replicates. […] LC50 values were calculated using GraphPad Prism software.

Aedes aegypti = details: previously shown; cited from earlier work
[14] = first instar larvae, calculated from killing dose curves FIG. 3D to 3NN, read-out: LD50 (the source's name)

## O=[N+]([O-])c1ccc(C(c2c[nH]c3cc(Cl)ccc23)c2c[nH]c3cc(Cl)ccc23)cc1 [BIM-32]
Cry1Fa resistant FAW
  lethality: strong lethality
Vip3A resistant FAW; neonates
  lethality: strong lethality

## Clc1ccc2c(C(Cc3ccccc3)c3c[nH]c4cc(Cl)ccc34)c[nH]c2c1 [BIM-26]
[1]; [14]
  LC50: 581 µM
[2]
  lethality: 60-70%

## Clc1ccc2c(Cc3c[nH]c4cc(Cl)ccc34)c[nH]c2c1 [BIM-11]
[1]; [14]
  LC50: 1180 µM
Vip3A resistant FAW; Vip3A-resistant neonates
  lethality: 100%

## Clc1ccc2c(C(c3ccccc3)c3c[nH]c4cc(Cl)ccc34)c[nH]c2c1 [BIM-25]
[1]; [14]
  LC50: 504 µM
Cry1Fa resistant FAW
  lethality: strong lethality
Vip3A resistant FAW; neonates
  lethality: strong lethality

## c1ccc2c(Cc3c[nH]c4ccccc34)c[nH]c2c1 [Arundine, 3,3′-diindolylmethane]
[1]; 156 μg/mL arundine
  % killing: 40%
[1]; 625 μg/mL arundine
  % killing: 63%
[1]; 2500 μg/mL arundine
  % killing: 97%
[1]; [14]
  LC50: 1820 µM
[3]; 156 μg/mL arundine
  % killing: 100%
[3]; 625 μg/mL arundine
  % killing: 70%
[3]; 2500 μg/mL arundine
  % killing: 97%
[4]; 156 μg/mL arundine
  % killing: 27%
[4]; 625 μg/mL arundine
  % killing: 50%
[4]; 2500 μg/mL arundine
  % killing: 80%
[5]; 156 μg/mL arundine
  % killing: 21%
[5]; 625 μg/mL arundine
  % killing: 50%
[5]; 2500 μg/mL arundine
  % killing: 39%
[6]; 156 μg/mL arundine
  % killing: 47%
[6]; 625 μg/mL arundine
  % killing: 90%
[6]; 2500 μg/mL arundine
  % killing: 83%
[7]; 156 μg/mL arundine
  % killing: 100%
[7]; 625 μg/mL arundine
  % killing: 100%
[7]; 2500 μg/mL arundine
  % killing: 100%
[8]; 156 μg/mL arundine
  % killing: 74%
[8]; 625 μg/mL arundine
  % killing: 74%
[8]; 2500 μg/mL arundine
  % killing: 87%
[9]; 156 μg/mL arundine
  % killing: 40%
[9]; 625 μg/mL arundine
  % killing: 50%
[9]; 2500 μg/mL arundine
  % killing: 90%
[10]; 156 μg/mL arundine
  % killing: 23%
[10]; 625 μg/mL arundine
  % killing: 100%
[10]; 2500 μg/mL arundine
  % killing: 100%
[11]; 156 μg/mL arundine
  % killing: 72%
[11]; 625 μg/mL arundine
  % killing: 94%
[11]; 2500 μg/mL arundine
  % killing: 72%
[12]; 156 μg/mL arundine
  % killing: 41%
[12]; 625 μg/mL arundine
  % killing: 72%
[12]; 2500 μg/mL arundine
  % killing: 93%
[13]
  mortality: greater than 95%

## c1ccc2[nH]c(Cc3c[nH]c4ccccc34)cc2c1 [3-((1H-indol-2-yl)methyl)-1H-indole, 3-((1H-Indol-2-yl)methyl)-1H-indole]
Aedes aegypti larvae
  LC50: 5.5 µg/mL and 22.5 µM
[1]; first instar larvae, N=16 per concentration, representative curve fit
  LC50: 598 µg/mL and 2.4 mM
[1]; first instar larvae
  activity against S. frugiperda: active
Aedes aegypti
  activity against Aedes aegypti: active
